Laboratory results reported in US7622256B2, “Method for selecting compounds that modulate MIF-induced expression of ICAM-1 and/or VCAM-1” (Avigen, Inc., priority 2006, dated 2009).

What was measured:
[1] = test system: rMIF-induced cell surface ICAM-1 expression in PBMCs; assay: Cell surface ELISA of ICAM-1 expression in stimulated PBMC culture; assay type: cell-based, Human; conditions: for % change in ICAM-1 expression with ibudilast: normalized to no stimulant levels, n = 2
Method: (§1) In order to determine whether ibudilast antagonized MIF activity, a peripheral blood mononuclear cell (PBMC) culture model was used. Human PBMCs were isolated by Ficoll gradient. Cells were plated in a 96-well tissue culture plate in RPMI medium without serum and incubated overnight to achieve quiescence. They were then treated with 0.1% DMSO (vehicle) or ibudilast at 10 μM, one hour prior to stimulation with recombinant human MIF (0.8, 8, or 80 nM) or LPS (10 ng/mL). 9 hours post-stimulation, the adherent cells were fixed and analyzed for expression of […] adhesion molecule-1 (ICAM-1) and vascular cell adhesion molecule-1 (VCAM-1) via cell surface enzyme linked immunosorbent assay (ELISA).

[2] = test system: rMIF-induced cell surface VCAM-1 expression in PBMCs; assay: Cell surface ELISA of VCAM-1 expression in stimulated PBMC culture; assay type: cell-based, Human; conditions: for % change in VCAM-1 expression with ibudilast: normalized to no stimulant levels, n = 2
Method: as §1

[3] = 10 μM ibudilast 1 h before stimulant, LPS 10 ng/mL, 9 hours post-stimulation
[4] = 10 μM ibudilast 1 h before stimulant, MIF 0.8 nM, 9 hours post-stimulation
[5] = 10 μM ibudilast 1 h before stimulant, MIF 8 nM, 9 hours post-stimulation
[6] = 10 μM ibudilast 1 h before stimulant, MIF 80 nM, 9 hours post-stimulation
[7] = 10 μM ibudilast, No Stimulant (quiescent cells)
[8] = 10 μM ibudilast, recombinant human MIF stimulation

SMILES: CC(C)C(=O)c1c(C(C)C)nn2ccccc12 [ibudilast, 3-isobutyryl-2-isopropylpyrazolo[1,5-a]pyridine]
- % change in ICAM-1 expression with ibudilast [1, 3]: 74.5%
- % change in ICAM-1 expression with ibudilast [1, 4]: −2.5%
- % change in ICAM-1 expression with ibudilast [1, 5]: −0.95%
- % change in ICAM-1 expression with ibudilast [1, 6]: −1.3%
- effect on LPS induction of ICAM-1 (in words) ([1]; 10 μM ibudilast, LPS 10 ng/mL): not significantly affected
- % change in ICAM-1 expression with ibudilast [1, 7]: 30.9%
- effect on recombinant MIF-induced expression of ICAM-1 (in words) [1, 8]: antagonizes
- % change in VCAM-1 expression with ibudilast [2, 3]: −1.5%
- % change in VCAM-1 expression with ibudilast [2, 4]: −2.9%
- % change in VCAM-1 expression with ibudilast [2, 5]: 4.4%
- % change in VCAM-1 expression with ibudilast [2, 6]: 5.4%
- effect on LPS induction of VCAM-1 (in words) ([2]; 10 μM ibudilast, LPS 10 ng/mL): not significantly affected
- % change in VCAM-1 expression with ibudilast [2, 7]: 95.1%
- effect on recombinant MIF-induced expression of VCAM-1 (in words) [2, 8]: antagonizes
